Where a SMILES comes first, the peptide text is derived from it. [ ]: non-standard residue; d: D form. Orn = NCCC[CH](N)C(=O)O
Compound `COc1cc(OCc2ccccc2CCCN2CCC(O)CC2)cc(OC)c1OC` has a logP of 2.6.
With `Cn1cc(-c2ccccc2)c(=O)c(-c2cccc(C(F)(F)F)c2)c1` the logP was 3.16.
For `Cc1nc2sccn2c(=O)c1CCN1CCC(=C(c2ccc(F)cc2)c2ccc(F)cc2)CC1`, the logP was 5.2.
`CCCCCC1CC(C(=O)NC(C(C)O)C2OC(SC)C(O)C(O)C2O)N(C)C1` (stereo not drawn) gave a logP of 0.93.
With `Fc1ccc(C(c2ccc(F)cc2)N2CCN(C/C=C/c3ccccc3)CC2)cc1` the logP was 5.78.
In the case of `COCC(O)Cn1ncc([N+](=O)[O-])n1` (stereo not drawn), the logP was -0.07.
`NC(=O)c1ccc2ccccc2c1` showed a logP of 1.88.
In the case of `CCCNC(=O)c1ccccc1`, the logP was 1.72.
`CCCCN(C)N=Nc1ccccc1C(N)=O` showed a logP of 3.52.
With `CCOC(=O)Cc1ccc(O)c2ncccc12` the logP was 2.26.
`C=CCN(C)N=Nc1ccccc1C(N)=O` showed a logP of 2.91.
In the case of `CS(=O)(=O)N(c1ccccc1[N+](=O)[O-])S(C)(=O)=O`, the logP was 0.81.
Compound `Cc1cc(NC(=O)C2=C(O)c3ccccc3S(=O)(=O)N2C)no1` has a logP of 2.83.
Compound `O=C(NCCCO)C(F)(F)Cn1ccnc1[N+](=O)[O-]` has a logP of -0.64.
With `CN(C)N=Nc1ccc(C(F)(F)F)cc1` the logP was 4.
In the case of `COc1ccccc1SCc1ccccc1CCCN1CCC(O)CC1`, the logP was 3.58.
`CCCNC(=O)C1(O)C(C)CC2C3CCC4=CC(=O)C=CC4(C)C3(F)C(O)CC21C` (stereo not drawn) gave a logP of 2.59.
`CN(C)C=Nc1ccn(C2OC(CO)C(O)C2O)c(=O)n1` (stereo not drawn) gave a logP of -1.68.
`O=C(NCCCCO)C(F)(F)Cn1ccnc1[N+](=O)[O-]` showed a logP of -0.29.
Work on `Nc1nc(Cl)c2ncn(C3OC(CO)CC3F)c2n1` (stereo not drawn) yielded a logP of 0.28.
`Cc1ccc(Cl)c(OCC(O)CNC(C)(C)C)c1` (stereo not drawn) showed a logP of 2.97.
With `CC1=C(C(=O)O)N2C(=O)C(NC(=O)C(OC(=O)C(C)C)c3ccccc3)C2SC1` (stereo not drawn) the logP was 2.05.
`CCCCC(C#N)(Cn1cncn1)c1ccc(Cl)cc1` (stereo not drawn) gave a logP of 2.94.
With `COCCNC(=S)Cn1cnc([N+](=O)[O-])n1` the logP was 0.25.
For `NC(=O)c1cc2ccccc2o1`, the logP was 1.54.
Work on `COC(=O)NCCn1c([N+](=O)[O-])cnc1C` yielded a logP of 0.02.
For `FC(F)(F)c1ccccc1C1OCC2ON=C(c3ccccc3)C2CO1` (stereo not drawn), the logP was 4.31.
For `COc1c(O)cc2c(c1OC)-c1ccc(SC)c(=O)cc1C(NC(C)=O)CC2` (stereo not drawn), the logP was 1.43.
`N#CC(C#N)=NNc1ccccc1Cl` showed a logP of 3.12.
`CO[C@@]1(NC(=O)C(C(=O)O)c2ccc(O)cc2)C(=O)N2C(C(=O)O)=C(CSc3nnnn3C)CO[C@@H]21` (stereo partly drawn) gave a logP of -0.58.
Compound `S=C=NCCCc1ccccc1` has a logP of 3.8.
For `N#CN=C1NCCN1Cc1cccnc1`, the logP was 0.77.
With `O=[N+]([O-])C=C1NCCN1Cc1cccnc1` the logP was -1.02.
With `COC(=O)n1cc(F)c(=O)[nH]c1=O` the logP was -0.68.
In the case of `Cc1ccc2c(=O)[nH]c(=O)[nH]c2c1`, the logP was 0.55.
Compound `O=C(Cn1ccnc1[N+](=O)[O-])NCCCCO` has a logP of -0.74.
Compound `O=C(O)c1ccccc1N1C(=O)CCC1=O` has a logP of 1.55.
In the case of `O=c1[nH]c(Nc2ccccc2)nc2c1ncn2CCO`, the logP was 0.83.
With `CSCCCNC(=O)C(F)(F)Cn1cnc([N+](=O)[O-])n1` the logP was 0.76.
`CCCCCCOc1ccc(NC(=O)OCCN2CCOCC2)cc1` showed a logP of 4.51.
`C=C1CCC2C(C1)c1c(OC)cc(CCC)cc1OC2(C)C` (stereo not drawn) gave a logP of 6.26.
`Cc1[nH]c2cccc3c2c1CC1NCC(C(=O)NC2(C(C)C)OC4(O)C5CCCN5C(=O)C(C(C)C)N4C2=O)C=C31` (stereo not drawn) gave a logP of 3.15.
In the case of `O=C(O)CCC(S)CCS` (stereo not drawn), the logP was 1.4.
`CC(C1CC1)C(O)(Cn1cncn1)c1ccc(Cl)cc1` (stereo not drawn) showed a logP of 2.9.
`O=C(Cn1c(=O)sc2ccc(Cl)cc21)N1CC[N+]([O-])(CCO)CC1` gave a logP of 0.05.
In the case of `COc1cc(C)c2c(c1OC)-c1ccc(NCc3ccccc3)c(=O)cc1C(NC(C)=O)CC2` (stereo not drawn), the logP was 3.58.
Compound `CNC(=NC#N)NCCSCc1nccs1` has a logP of 0.89.
`O=c1nc(N=CN2CCCC2)ccn1C1CC(O)C(CO)O1` (stereo not drawn) showed a logP of -1.02.
With `CC(C)CN1C(=O)C(=O)c2ccccc2C1=O` the logP was 2.08.
`CC1(C)SC2C(NC(=O)c3c(-c4c(F)cccc4Cl)noc3CO)C(=O)N2C1C(=O)O` (stereo not drawn) gave a logP of 2.23.
For `OCC1CC(F)C(n2cnc3c(Br)ncnc32)O1` (stereo not drawn), the logP was 0.44.
Compound `NC(=O)c1cc(-c2ccccc2)nnc1NCCN1CCOCC1` has a logP of 1.86.
Compound `CCCOc1ccc2ccc(=O)oc2c1` has a logP of 2.86.
With `c1nnn(C23CC4CC(CC(C4)C2)C3)n1` the logP was 2.95.
For `O=[N+]([O-])C=C1NCCN1Cc1ccccn1`, the logP was -0.87.
For `CCOc1cccc(OCc2ccccc2CCCN2CCC(O)CC2)c1`, the logP was 3.5.
In the case of `CC1NC(=O)C(CC(=O)NC(Cc2cn(C(=O)OCc3ccccc3)c3ccccc23)C(=O)NC(Cc2ccccc2)C(=O)N(C)Cc2ccccc2)NC1=O` (stereo not drawn), the logP was 5.66.
`C=C1C(=O)OC2CC(C)C3C=CC(=O)C3(C)C(OC(=O)CCCC(=O)OC3C4C(=C)C(=O)OC4CC(C)C4C=CC(=O)C43C)C12` (stereo not drawn) gave a logP of 1.37.
Compound `CCn1cc(C(=O)O)c(=O)c2ccc(C)nc21` has a logP of 1.59.
In the case of `Cc1cc(Cl)c(Cl)cc1Cl`, the logP was 4.56.
Work on `Cc1cc(O)cc(C)c1O` yielded a logP of 1.
`CNC(=NC#N)NCCCCc1ncccc1OC` gave a logP of 1.5.
In the case of `CCC(=O)OC(C(=O)NC1C(=O)N2C(C(=O)O)=C(C)CSC12)c1ccccc1` (stereo not drawn), the logP was 1.47.
`CC(C)C(=O)NS(=O)(=O)c1ccc(C(F)(F)F)cc1N` gave a logP of 2.56.
Compound `COc1cccc(C(=O)NP(=O)(N2CC2)N2CC2)c1` has a logP of 0.86.
With `CCC(=O)C(CS(=O)(=O)c1ccc(C)cc1)c1ccc(Cl)cc1` (stereo not drawn) the logP was 3.43.
`CC1=C(N2CC2)C(=O)C(Br)=C(N2CC2)C1=O` gave a logP of 1.36.
Work on `O=[N+]([O-])c1ccc2c(O)cccc2c1` yielded a logP of 3.5.
Work on `Clc1ccc(Cl)c(-c2c(Cl)ccc(Cl)c2Cl)c1Cl` yielded a logP of 7.12.
Work on `CC1CC2C3CCC4=CC(=O)C=CC4(C)C3(F)C(O)CC2(C)C1(O)C(=O)NCCCl` (stereo not drawn) yielded a logP of 2.73.
For `Cc1cccc(C)c1NC(=O)c1ccc(CN2CCCC2)cc1`, the logP was 3.14.
`CSC(=NOC(=O)N(C)COC1OC(C(=O)O)C(O)C(O)C1O)C(=O)N(C)C` (stereo not drawn) gave a logP of -2.52.
Compound `O=c1[nH]c(Nc2ccccc2)nc2c1ncn2CC(O)CSCCO` (stereo not drawn) has a logP of 0.83.
`C#CCC(O)(c1cccnc1)c1ccc(Cl)c(Cl)c1` (stereo not drawn) showed a logP of 2.42.
Compound `CCN(CC)N=Nc1ccccc1C(N)=O` has a logP of 2.96.
For `OC1CCN(CCCc2ccc(CSc3ccccc3)cc2)CC1`, the logP was 3.67.
In the case of `CCCn1c(=O)c2[nH]c(-c3ccc(Cl)cc3N)nc2n(CCC)c1=O`, the logP was 4.02.
Compound `Cc1nc([N+](=O)[O-])c(Br)n1C` has a logP of 0.44.
`Oc1ccc(F)c2cccnc12` showed a logP of 2.3.
With `Oc1c(I)cc(I)cc1I` the logP was 4.5.
`COc1ccc2c(C)cc(=O)n3c(C)cc1c23` gave a logP of 2.84.
For `CCCCCCOc1ccccc1NC(=O)OCCN1CCOCC1`, the logP was 4.24.
For `COCCCNC(=S)Cn1cnc([N+](=O)[O-])n1`, the logP was 0.63.
`C#CCOc1c(Cl)cc(NC=NOCCC)cc1Cl` showed a logP of 4.
`O=Cn1c2c(c3ccccc31)CCNC2` showed a logP of 0.26.
Compound `FC(F)(F)C(F)(F)c1ccccc1` has a logP of 3.36.
For `CCC(C)C(NC(=O)C(CCCN)NC(C)=O)C(=O)NC(C(N)=O)C(C)C` (stereo not drawn) (Ac-[Orn]-Ile-Val-NH2; configuration not given here), the logP was -0.43.
Compound `N#CC(C#N)=NNc1ccc(/N=N/c2ccccc2)cc1` has a logP of 4.25.
`O=[N+]([O-])c1ncn[nH]1` showed a logP of -0.33.
For `Clc1cc(Cl)c(-c2cc(Cl)c(Cl)c(Cl)c2)c(Cl)c1`, the logP was 7.25.
With `Cn1c([N+](=O)[O-])cnc1C(N)=O` the logP was 0.29.
Compound `CCCCN1C(=O)C(=O)c2ccccc2C1=O` has a logP of 2.18.
`CCCCCCCOc1cccc(NC(=O)OCCN2CCOCC2)c1` showed a logP of 5.28.

From the OPERA property sets (Mansouri et al. 2018)
